From US7833967B2, “Synthetic antimicrobial polypeptides” (priority 2003, dated 2010) come the findings set out here.

The test system of the experiment is E. coli TOP10. The experiment can be described thus: Suicide expression system (SES) growth inhibition. Type of experiment: cell-based.
Where [1] appears, read: Table 5, mixed-motif library, re-tested in the Bioscreen C.
Where [2] appears, read: Table 1, 0.1% inducer (arabinose), pBAD/gIIIA in E. coli TOP10, Bioscreen C 37° C., end point OD450 vs control vector.
Setting [3] is: Table 4, variants of SEQ ID NO:10, re-tested in the Bioscreen C.
Where [4] appears, read: Table 3, variants of SEQ ID NO:5, re-tested in the Bioscreen C.
Setting [5] is: Table 2, variants of SEQ ID NO:1, re-tested in the Bioscreen C.

With “236 (RRRPPRLPRPFPLRPPPRVPRPVPFRP; Synthetic antimicrobial peptide) [compound 236]”, the “Growth inhibition (%)” value under setting [1] is recorded as 91%.

“286 (RRRPPRLPRPLPVRPPPRIPRPLPLRP; Synthetic antimicrobial peptide) [compound 286]”: the “Growth inhibition (%)” value under setting [1] is given as 95%.

“314 (RRRPPRVPRPLPFRPPPRFPRPIPFRP; Synthetic antimicrobial peptide) [compound 314]”: the “Growth inhibition (%)” value under setting [1] turned out to be 94%.

For “284 (RRRPPRLPRPLPVRPPPRFPRPVPVRP; Synthetic antimicrobial peptide) [compound 284]”, the “Growth inhibition (%)” value under setting [1] was 89%.

With “12 (RRRRPPFRPPFRPPFRPPFRPPFRPPF; Synthetic antimicrobial peptide) [compound 12]”, the “Growth inhibition (%)” value under setting [2] is on record as 76%.

“10 (RRRPFRPPFRPPFRPPFRPPFRPPFRP; Synthetic antimicrobial peptide) [compound 10]”: the “Growth inhibition (%)” value under setting [2] was found to be 78%.

For “223 (RRRPPRLPRPFPIRPPPRLPRPLPFRP; Synthetic antimicrobial peptide) [compound 223]”, the “Growth inhibition (%)” value under setting [1] stood at 90%.

For the substance “315 (RRRPPRVPRPVPVRPPPRIPRPFPVRP; Synthetic antimicrobial peptide) [compound 315]”, the “Growth inhibition (%)” value under setting [1] is listed as 98%.

As to “291 (RRRPPRLPRPLPVRPPPRVPRPVPFRP; Synthetic antimicrobial peptide) [compound 291]”, under setting [1], the “Growth inhibition (%)” value amounted to 90%.

As to “85 (RRRPFRPPIRPPIRPPFRPPFRPPIRP; Synthetic antimicrobial peptide) [compound 85]”, under setting [3], the “Growth inhibition (%)” value was 67%.

As for “33 (RRRPRPFPRPFPRPFPRPFPRPFPRPF; Synthetic antimicrobial peptide) [compound 33]”, the “Growth inhibition (%)” value under setting [4] stood at 79%.

On to “309 (RRRPPRVPRPFPIRPPPRVPRPIPFRP; Synthetic antimicrobial peptide) [compound 309]”, for which the “Growth inhibition (%)” value under setting [1] came to 76%.

Consider “248 (RRRPPRLPRPFPVRPPPRVPRPVPIRP; Synthetic antimicrobial peptide) [compound 248]”, for which, under setting [1], the “Growth inhibition (%)” value came out at 94%.

Consider “4 (RRRFPPRFPPRFPPRFPPRFPPRFPPR; Synthetic antimicrobial peptide) [compound 4]”, for which the “Growth inhibition (%)” value under setting [2] came out at 46%.

Regarding “270 (RRRPPRLPRPLPFRPPPRVPRPVPVRP; Synthetic antimicrobial peptide) [compound 270]”, the “Growth inhibition (%)” value under setting [1] was 90%.

On to “229 (RRRPPRLPRPFPLRPPPRFPRPFPLRP; Synthetic antimicrobial peptide) [compound 229]”, for which the “Growth inhibition (%)” value under setting [1] was 95%.

Take “129 (RRRPFRPPFRPPVRPPFRPPIRPPLRP; Synthetic antimicrobial peptide) [compound 129]”: the “Growth inhibition (%)” value under setting [3] is 69%.

“257 (RRRPPRLPRPIPVRPPPRFPRPIPFRP; Synthetic antimicrobial peptide) [compound 257]”: the “Growth inhibition (%)” value under setting [1] was determined as 92%.

For “61 (RRRPRPVPRPFPRPVPRPLPRPFPRPF; Synthetic antimicrobial peptide) [compound 61]”, the “Growth inhibition (%)” value under setting [4] is 97%.

On to “63 (RRRPRPFPRPFPRPVPRPFPRPFPRQSNCSRTKTHLRRGSE; Synthetic antimicrobial peptide) [compound 63]”, for which the “Growth inhibition (%)” value under setting [4] is reported as 80%.

Turning to “111 (RRRPLRPPVRPPFRPPVRPPLRPPFRP; Synthetic antimicrobial peptide) [compound 111]”, the “Growth inhibition (%)” value under setting [3] worked out at 59%.

For the substance “275 (RRRPPRLPRPLPIRPPPRLPRPFPVRP; Synthetic antimicrobial peptide) [compound 275]”, the “Growth inhibition (%)” value under setting [1] is 92%.

“35 (RRRPRPFPRPFPRPFPRPFPRPIPRPF; Synthetic antimicrobial peptide) [compound 35]”: the “Growth inhibition (%)” value under setting [4] is listed as 78%.

Regarding “216 (RRRPPRLPRPFPFRPPPRPRPLPVRP; Synthetic antimicrobial peptide) [compound 216]”, under setting [1], the “Growth inhibition (%)” value is listed as 95%.

Take “210 (RRRPPRIPRPIPVRPPPRIPRPIPFRP; Synthetic antimicrobial peptide) [compound 210]”: under setting [1], the “Growth inhibition (%)” value is reported as 94%.

Consider “220 (RRRPPRLPRPFPIRPPPRFPRPFPVRP; Synthetic antimicrobial peptide) [compound 220]”, for which the “Growth inhibition (%)” value under setting [1] is reported as 90%.

For the substance “218 (RRRPPRLPRPFPFRPPPRVPRPIPVRP; Synthetic antimicrobial peptide) [compound 218]”, the “Growth inhibition (%)” value under setting [1] came to 93%.

As for “19 (RRRPPRLPPRFPPRFPPRIPPRFPPRI; Synthetic antimicrobial peptide) [compound 19]”, under setting [5], the “Growth inhibition (%)” value stood at 78%.

As to “108 (RRRPLRPPFRPPIRPPVRPPVRPPFRP; Synthetic antimicrobial peptide) [compound 108]”, under setting [3], the “Growth inhibition (%)” value was found to be 76%.

As for “1 (RRRPPRFPPRFPPRFPPRFPPRFPPRF; Synthetic antimicrobial peptide) [compound 1]”, under setting [2], the “Growth inhibition (%)” value was found to be 48%.

For “24 (RRRPPRLPPRFPPRFPPRVPPRVPPRF; Synthetic antimicrobial peptide) [compound 24]”, the “Growth inhibition (%)” value under setting [5] worked out at 90%.

For the substance “50 (RRRPRPFPRPLPRPVPRPFPRPVPRPV; Synthetic antimicrobial peptide) [compound 50]”, the “Growth inhibition (%)” value under setting [4] worked out at 69%.

As to “90 (RRRPFRPPIRPPFRPPFRPPVRPPFRP; Synthetic antimicrobial peptide) [compound 90]”, the “Growth inhibition (%)” value under setting [3] was found to be 74%.

For the substance “112 (RRRPFRPPIRPPFRPPVRPPVRPPVRP; Synthetic antimicrobial peptide) [compound 112]”, under setting [3], the “Growth inhibition (%)” value is 69%.

“106 (RRRPFRPPFRPPFRPPIRPPIRPPLRP; Synthetic antimicrobial peptide) [compound 106]”: the “Growth inhibition (%)” value under setting [3] is 75%.

As for “103 (RRRPLRPPIRPPIRPPVRPPFRPPIRP; Synthetic antimicrobial peptide) [compound 103]”, the “Growth inhibition (%)” value under setting [3] stood at 73%.

Regarding “154 (RRRPFRPPFRPPVRPPVRPPFRPPFRP; Synthetic antimicrobial peptide) [compound 154]”, the “Growth inhibition (%)” value under setting [3] came to 75%.

Consider “225 (RRRPPRLPRPFPIRPPPRVPRPIPIRP; Synthetic antimicrobial peptide) [compound 225]”, for which the “Growth inhibition (%)” value under setting [1] is 97%.

Take “120 (RRRPLRPPFRPPFRPPFRPPVRPPIRP; Synthetic antimicrobial peptide) [compound 120]”: the “Growth inhibition (%)” value under setting [3] is given as 68%.

Turning to “280 (RRRPPRLPRPLPLRPPPRFPRPFPVRP; Synthetic antimicrobial peptide) [compound 280]”, the “Growth inhibition (%)” value under setting [1] came out at 97%.

As to “153 (RRRPIRPPFRPPIRPPVRPPIRPPFRP; Synthetic antimicrobial peptide) [compound 153]”, under setting [3], the “Growth inhibition (%)” value is recorded as 68%.

As for “158 (RRRPIRPPFRPPIRPPIRPPIRPPVRP; Synthetic antimicrobial peptide) [compound 158]”, the “Growth inhibition (%)” value under setting [3] stood at 67%.

Regarding “14 (RRRPPRFPPRIPPRFPPRLPPRIPPRL; Synthetic antimicrobial peptide) [compound 14]”, the “Growth inhibition (%)” value under setting [5] was determined as 90%.

With “265 (RRRPPRLPRPLPFRPPPRLPRPFPVRP; Synthetic antimicrobial peptide) [compound 265]”, the “Growth inhibition (%)” value under setting [1] is reported as 94%.

Regarding “167 (RRRPFRPPLRPPFRPPLRPPLRPPVRP; Synthetic antimicrobial peptide) [compound 167]”, the “Growth inhibition (%)” value under setting [3] amounted to 58%.

As to “232 (RRRPPRLPRPFPLRPPPRLPRPIPVRP; Synthetic antimicrobial peptide) [compound 232]”, under setting [1], the “Growth inhibition (%)” value worked out at 92%.

As to “68 (RRRPIRPPFRPPFRPPLRPPVRPPFRP; Synthetic antimicrobial peptide) [compound 68]”, the “Growth inhibition (%)” value under setting [3] was found to be 78%.

As for “179 (RRRPFRPPIRPPIRPPFRPPFRPPFRP; Synthetic antimicrobial peptide) [compound 179]”, under setting [3], the “Growth inhibition (%)” value was determined as 87%.

Take “199 (RRRPLRPPIRPPFRPPVRPPFRPPFRP; Synthetic antimicrobial peptide) [compound 199]”: under setting [3], the “Growth inhibition (%)” value came to 80%.

For “99 (RRRPFRPPIRPPIRPPFRPPIRPPFRP; Synthetic antimicrobial peptide) [compound 99]”, the “Growth inhibition (%)” value under setting [3] turned out to be 79%.

Consider “246 (RRRPPRLPRPFPVRPPPRVPRPFPVRP; Synthetic antimicrobial peptide) [compound 246]”, for which the “Growth inhibition (%)” value under setting [1] is 95%.

Regarding “16 (RRRPPRIPPRFPPRVPPRFPPRVPPRV; Synthetic antimicrobial peptide) [compound 16]”, under setting [5], the “Growth inhibition (%)” value amounted to 98%.

As for “164 (RRRPFRPPIRPPLRPPFRPPFRPPFRP; Synthetic antimicrobial peptide) [compound 164]”, the “Growth inhibition (%)” value under setting [3] worked out at 78%.

Regarding “94 (RRRPFRPPVRPPIRPPVRPPFRPPFRP; Synthetic antimicrobial peptide) [compound 94]”, under setting [3], the “Growth inhibition (%)” value is 77%.

“168 (RRRPLRPPFRPPIRPPVRPPLRPPFRP; Synthetic antimicrobial peptide) [compound 168]”: under setting [3], the “Growth inhibition (%)” value is reported as 71%.
